# “And” between values parts separate entries of the source, which are not always exact repeats. Identical values can stand only once.
# How the values were obtained:
# Assay type in all cases: in vivo, human
# [1] = system: hepatocellular cancer (HCC) subjects; assay: Pharmacogenetic analysis: association of genetic variants with TTP and OS in Asian HCC subjects receiving foretinib; settings: foretinib 30 mg QD; for Median TTP: (95% CI)
# Procedure: Asian HCC subjects treated with the maximum tolerated dose (MTD) of 30 mg QD and provided informed consent and blood sample for PGx research (n=31 of 39 subjects treated) were selected for PGx analysis. Of the 31 subjects who provided consent, 28 subjects were evaluable for objective response rate (ORR) and 30 for time to progression (TTP) and overall survival (OS).
# Venous blood was collected from each PGx consented subject into an ethylenediaminetetraacetic acid (EDTA) vacutainer for PGx analysis. DNA was extracted using the Qiagen Autopure automated DNA extraction by Covance (Indianapolis, Ind., USA) and was genotyped for 20 single nucleotide polymorphisms (SNPs) with potential functional consequence from 13 candidate genes. The list of the genetic variants including their unique identifier (rs ID) and allele frequency in Asian population is included in Table 1. Genotyping of the SNPs was done via Sanger sequencing, or using custom TaqMan® SNP genotyping assays (Applied Biosystems, Foster City, Calif., USA) internally at GlaxoSmithKline or via TaqMan® custom or Assay on Demand genotyping assays (Applied Biosystems, Foster City, Calif., USA) by Gen-Probe (Wythenshawe, Manchester, UK).
# Association with ORR was evaluated using Fisher's Exact Test (FET). Association with TTP and OS was tested using time-to-event (progression) models, using the Score (log rank) test. Since one of the haplotypes CAT (a unique combination of ‘C’, ‘A’, and ‘T’ alleles of SNPs—rs2307424, rs2307418, and rs4073054, respectively) in gene NR1I3/CAR (nuclear receptor subfamily 1, group I, member 3/constitutive androstane receptor) was previously reported to be associated with worse progression-free survival in sunitinib-treated renal cell carcinoma subjects (Van der Veldt 2011), the 3 SNPs in NR1I3 (were analyzed separately and together as a haplotype for association with clinical endpoints (see Tables 1 and 2). Similarly, the 3 SNPs in ABCB1 (ATP-binding cassette, subfamily B, member 1) were also analyzed separately and together as a haplotype.
# Because of the limited sample size of the study, genetic analyses were performed without adjustment for baseline demographics or potential covariates, and p-values were not adjusted for multiple testing.
# sMET = assay: Circulating sMET level, percent change from baseline (Meso Scale Discovery Platform); settings: Day 8, 30 mg/daily
# Procedure: (§1) Blood was collected at baseline (Day 1) and post treatment with 30 mg/daily of foretinib on Days 8, 15, and 22. CAF (Cytokine and Angiogenic Factor) levels were determined. CAF levels were determined by using the Searchlight platform (Aushon Biosciences). Levels of circulating sMET and HGF were determined using Meso Scale Discovery Platform (Don Bottaro, National Cancer Institute [NCI]). The biomarker analysis population was predefined to include patients who met the following criteria: • Patient is in a 30 mg cohort. • Pharmacodynamic (PD)-sample data available at baseline and for at least 1 post-baseline timepoint, and • Patient received at least 75% of planned doses up to time of last PD sample. CAF percent changes from baseline were assessed for each CAF, at each time point, for available data in the biomarker population, using the Wilcoxon Signed Rank Test.
# [2] = system: CAF (Cytokine and Angiogenic Factor) levels; assay: Circulating pharmacodynamic markers: CAF time course, percent change from baseline (Searchlight platform)
# Procedure: as §1
# [3] = system: hepatocellular carcinoma patients; assay: Association between baseline (Day 1) CAF levels and TTP / OS in patients on foretinib
# Procedure: Blood was collected at baseline (Day 1) and post treatment with 30 mg/daily of foretinib on Days 8, 15, and 22. CAF (Cytokine and Angiogenic Factor) levels were determined. CAF levels were determined by using the Searchlight platform (Aushon Biosciences). Levels of circulating sMET and HGF were determined using Meso Scale Discovery Platform (Don Bottaro, National Cancer Institute [NCI]).
# The biomarker analysis population was predefined to include patients who met the following criteria: • Patient is in a 30 mg cohort. • Pharmacodynamic (PD)-sample data available at baseline and for at least 1 post-baseline timepoint, and • Patient received at least 75% of planned doses up to time of last PD sample.
# Association between day 1 CAF levels and TTP was assessed using univariate and multivariate (covariate adjusted) proportional hazards regression analysis. CAF data were transformed (log2) where appropriate.
# Association between day 1 CAF levels and OS was assessed using univariate and multivariate (covariate adjusted) proportional hazards regression analysis. CAF data were transformed (log2) where appropriate. For statistically significant CAF's in the OS statistical models, a combined model of the significant CAF's will be explored, in which an optimal predictive combination of the CAF's (including optimal cutoffs) will be investigated. The method employed to explore the CAF's will depend upon the number of significant CAF's, and will be described in the results section.
smiles,measurement,setting,value
COc1cc2c(Oc3ccc(NC(=O)C4(C(=O)Nc5ccc(F)cc5)CC4)cc3F)ccnc2cc1OCCCN1CCOCC1 [foretinib],Median TTP,[1]; ABCB1 rs1045642 TC or TT genotype,8 months and 8.21 (2.17-NE) months
same,median OS,[1]; NR1I3 CAT/CAT,5.9 months
same,Median TTP,"[1]; NR1I3 CAT/− or −/− (1 or no copy, other haplotypes)",6.21 (2.96-NE) months
same,Median TTP,[1]; NR1I3 haplotype CAT/CAT (2 copies),1.92 (1.51-NE*) months
same,median OS,[1]; NR1I3 other haplotypes,8.5 months
same,sMET Percent Change from baseline,sMET,12%
same,Clusterin Percent Change from baseline,"[2]; Day 8, 30 mg/daily",25%
same,FASL Percent Change from baseline,"[2]; Day 8, 30 mg/daily",26%
same,GCSF Percent Change from baseline,"[2]; Day 8, 30 mg/daily",46%
same,IGFBP3 Percent Change from baseline,"[2]; Day 8, 30 mg/daily",19%
same,IL6 Percent Change from baseline,"[2]; Day 8, 30 mg/daily",58%
same,PLGF Percent Change from baseline,"[2]; Day 8, 30 mg/daily",105%
same,TRAIL Percent Change from baseline,"[2]; Day 8, 30 mg/daily",25%
same,TSP2 Percent Change from baseline,"[2]; Day 8, 30 mg/daily",−14%
same,VCAM1 Percent Change from baseline,"[2]; Day 8, 30 mg/daily",28%
same,VEGF Percent Change from baseline,"[2]; Day 8, 30 mg/daily",61%
same,ANG2 Percent Change from baseline,"[2]; Day 15, 30 mg/daily",−24%
same,FASL Percent Change from baseline,"[2]; Day 15, 30 mg/daily",20%
same,IGFBP3 Percent Change from baseline,"[2]; Day 15, 30 mg/daily",13%
same,IL6 Percent Change from baseline,"[2]; Day 15, 30 mg/daily",124%
same,IL8 Percent Change from baseline,"[2]; Day 15, 30 mg/daily",20%
same,PLGF Percent Change from baseline,"[2]; Day 15, 30 mg/daily",130%
same,SCF Percent Change from baseline,"[2]; Day 15, 30 mg/daily",−14%
same,TRAIL Percent Change from baseline,"[2]; Day 15, 30 mg/daily",17%
same,TSP2 Percent Change from baseline,"[2]; Day 15, 30 mg/daily",−19%
same,VCAM1 Percent Change from baseline,"[2]; Day 15, 30 mg/daily",43%
same,VEGF Percent Change from baseline,"[2]; Day 15, 30 mg/daily",83%
same,VEGFR2 Percent Change from baseline,"[2]; Day 15, 30 mg/daily",−21%
same,ANG2 Percent Change from baseline,"[2]; Day 22, 30 mg/daily",−17%
same,Clusterin Percent Change from baseline,"[2]; Day 22, 30 mg/daily",23%
same,FASL Percent Change from baseline,"[2]; Day 22, 30 mg/daily",44%
same,IGFBP3 Percent Change from baseline,"[2]; Day 22, 30 mg/daily",17%
same,IL6 Percent Change from baseline,"[2]; Day 22, 30 mg/daily",111%
same,PLGF Percent Change from baseline,"[2]; Day 22, 30 mg/daily",120%
same,TRAIL Percent Change from baseline,"[2]; Day 22, 30 mg/daily",24%
same,VCAM1 Percent Change from baseline,"[2]; Day 22, 30 mg/daily",64%
same,VEGF Percent Change from baseline,"[2]; Day 22, 30 mg/daily",83%
same,VEGFR2 Percent Change from baseline,"[2]; Day 22, 30 mg/daily",−21%
same,"longer TTP, lower vs higher levels of IL6","[3]; median split of baseline IL6 levels, 30 mg cohort",~6.7 month
same,deaths,[3]; patients in the highest quartile of baseline IL6,10/10
same,deaths,[3]; patients in the highest quartile of baseline IL8,9/10
same,deaths,[3]; patients in the lowest quartiles of baseline IL6 and IL8 (all patients censored),0/9
same,TTP,"[3]; patients with higher baseline levels of IL6 (median split), 30 mg cohort",2.9 months
same,TTP,"[3]; patients with lower baseline levels of IL6 (median split), 30 mg cohort",9.6 months
same,median survival,[3]; patients with unfavorable levels of IL6 and IL8 (group 1 in FIG. 6),6 months
